Activity calls are given as the source filed them.
Assays:
Format in all cases: functional
[1] = molecular target: Benomyl/methotrexate resistance protein (Candida albicans, UniProt P28873); assay: CaMdr1 efflux pump inhibitor potency, dose response, singleplex, Cherry Pick1 hits (AID 588608)
[2] = molecular target: T1, Multidrug resistance protein CDR1 (Candida albicans, UniProt P43071); assay: CaCDR1 efflux pump inhibitors in yeast, dose response, S. cerevisiae AD1-8u, singleplex, Cherry Pick1 hits (AID 588606)
[3] = molecular target: T2, Multidrug resistance protein CDR2 (Candida albicans (strain SC5314 / ATCC MYA-2876) (Yeast), UniProt P78595); assay: CaCDR2 efflux pump inhibitors in yeast, dose response, S. cerevisiae AD1-8u, singleplex, Cherry Pick1 hits (AID 588604)
T2 sequence (P78595 whole entry): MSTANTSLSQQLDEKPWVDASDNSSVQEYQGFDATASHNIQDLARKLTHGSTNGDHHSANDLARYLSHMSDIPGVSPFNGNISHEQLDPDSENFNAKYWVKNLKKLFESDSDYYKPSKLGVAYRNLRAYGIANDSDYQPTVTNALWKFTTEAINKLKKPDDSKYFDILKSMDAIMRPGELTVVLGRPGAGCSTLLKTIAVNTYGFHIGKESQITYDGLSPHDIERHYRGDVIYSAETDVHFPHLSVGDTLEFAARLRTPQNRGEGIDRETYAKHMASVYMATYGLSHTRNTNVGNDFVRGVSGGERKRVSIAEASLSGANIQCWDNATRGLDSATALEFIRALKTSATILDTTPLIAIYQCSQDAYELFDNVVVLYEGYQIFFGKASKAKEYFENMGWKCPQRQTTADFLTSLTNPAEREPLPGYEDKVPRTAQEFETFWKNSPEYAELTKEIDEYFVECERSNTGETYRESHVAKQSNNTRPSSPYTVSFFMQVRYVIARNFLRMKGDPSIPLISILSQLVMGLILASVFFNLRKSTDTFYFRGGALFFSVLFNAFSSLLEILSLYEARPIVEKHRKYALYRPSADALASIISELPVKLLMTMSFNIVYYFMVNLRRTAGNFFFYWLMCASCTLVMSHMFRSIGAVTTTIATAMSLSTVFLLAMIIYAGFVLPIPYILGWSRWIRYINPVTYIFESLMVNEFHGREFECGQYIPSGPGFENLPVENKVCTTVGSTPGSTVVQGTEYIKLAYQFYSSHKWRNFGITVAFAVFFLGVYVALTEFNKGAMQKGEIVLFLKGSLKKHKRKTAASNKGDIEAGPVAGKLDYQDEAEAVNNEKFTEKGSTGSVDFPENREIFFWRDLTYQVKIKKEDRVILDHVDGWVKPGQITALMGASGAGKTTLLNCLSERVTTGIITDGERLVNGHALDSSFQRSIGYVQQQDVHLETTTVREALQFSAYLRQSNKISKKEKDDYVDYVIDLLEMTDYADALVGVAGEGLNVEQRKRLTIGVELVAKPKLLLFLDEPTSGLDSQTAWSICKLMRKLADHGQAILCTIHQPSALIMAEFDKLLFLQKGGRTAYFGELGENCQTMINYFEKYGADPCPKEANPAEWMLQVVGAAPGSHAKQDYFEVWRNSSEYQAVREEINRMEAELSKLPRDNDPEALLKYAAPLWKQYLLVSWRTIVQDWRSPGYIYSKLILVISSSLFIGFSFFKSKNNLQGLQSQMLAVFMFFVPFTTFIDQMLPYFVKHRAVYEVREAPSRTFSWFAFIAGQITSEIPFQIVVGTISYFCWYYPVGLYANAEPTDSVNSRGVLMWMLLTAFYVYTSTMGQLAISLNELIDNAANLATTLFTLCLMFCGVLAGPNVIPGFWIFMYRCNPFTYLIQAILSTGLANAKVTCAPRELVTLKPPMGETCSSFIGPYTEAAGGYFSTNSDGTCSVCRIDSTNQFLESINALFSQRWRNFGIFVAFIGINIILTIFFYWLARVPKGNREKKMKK

[4] = molecular target: T1, Multidrug resistance protein CDR1; assay: CaCdr1 efflux pump inhibitor potency, dose response, singleplex, Cherry Pick2 set (AID 623996); settings: read-out: EC50_MICROM
[5] = molecular target: T2, Multidrug resistance protein CDR2; assay: CaCDR2 efflux pump inhibitors in yeast, dose response, S. cerevisiae AD1-8u, singleplex, Cherry Pick2 set (AID 623994); settings: read-out: EC50_MICROM
[6] = molecular target: T3, High affinity choline transporter 1 (Homo sapiens, UniProt Q9GZV3); assay: CHT inhibitors, dose response, cell-based, 5-point CRC, membrane potential dye (AID 504840)
T3 sequence (Q9GZV3 whole entry): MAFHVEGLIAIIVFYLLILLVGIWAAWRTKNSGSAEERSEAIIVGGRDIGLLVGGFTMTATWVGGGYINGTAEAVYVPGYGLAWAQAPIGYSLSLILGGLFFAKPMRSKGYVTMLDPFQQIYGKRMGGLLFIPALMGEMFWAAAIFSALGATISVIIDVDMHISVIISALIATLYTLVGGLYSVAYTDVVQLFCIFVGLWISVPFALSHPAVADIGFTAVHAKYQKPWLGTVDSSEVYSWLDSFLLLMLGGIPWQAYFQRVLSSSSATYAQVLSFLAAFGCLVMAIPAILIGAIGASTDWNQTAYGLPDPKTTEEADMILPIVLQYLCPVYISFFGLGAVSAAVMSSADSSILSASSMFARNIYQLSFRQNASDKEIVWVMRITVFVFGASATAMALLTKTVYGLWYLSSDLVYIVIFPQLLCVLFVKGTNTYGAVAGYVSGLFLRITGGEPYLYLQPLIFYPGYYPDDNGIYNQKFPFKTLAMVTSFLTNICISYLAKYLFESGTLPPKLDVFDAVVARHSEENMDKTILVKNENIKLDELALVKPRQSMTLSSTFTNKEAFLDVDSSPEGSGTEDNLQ

[7] = molecular target: T3, High affinity choline transporter 1; assay: CHT inhibitors, dose response, cell-based, 10-point CRC, membrane potential dye (AID 588401);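 also: membrane potential dye fluorescence of choline-evoked depolarization via CHT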
[8] = molecular target: Melanin-concentrating hormone receptor 1 (Homo sapiens, UniProt Q99705); assay: Late-stage fluorescence-based counterscreen for antagonists of the G-protein coupled receptor 7 (GPR7): cell-based dose response assay to identify antagonists of the melanin-concentrating hormone receptor 1 (MCHR1) Set 6.
[9] = molecular target: Neuropeptides B/W receptor type 1 (Homo sapiens, UniProt P48145); assay: GPR7 antagonist potency, late-stage follow-up, cell-based, fluorescence, dose response, set 6 (AID 588583)
Neuropeptides B/W receptor type 1, sequence (P48145 whole entry): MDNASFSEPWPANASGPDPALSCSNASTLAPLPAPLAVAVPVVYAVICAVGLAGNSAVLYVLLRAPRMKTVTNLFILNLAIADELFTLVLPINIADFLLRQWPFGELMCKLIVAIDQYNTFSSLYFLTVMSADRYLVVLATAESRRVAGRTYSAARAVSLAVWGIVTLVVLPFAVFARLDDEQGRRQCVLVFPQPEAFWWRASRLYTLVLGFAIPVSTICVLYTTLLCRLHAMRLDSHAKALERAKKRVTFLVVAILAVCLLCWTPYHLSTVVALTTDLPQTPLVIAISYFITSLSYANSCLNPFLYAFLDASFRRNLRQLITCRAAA

T1 sequence (P43071 whole entry, looked up): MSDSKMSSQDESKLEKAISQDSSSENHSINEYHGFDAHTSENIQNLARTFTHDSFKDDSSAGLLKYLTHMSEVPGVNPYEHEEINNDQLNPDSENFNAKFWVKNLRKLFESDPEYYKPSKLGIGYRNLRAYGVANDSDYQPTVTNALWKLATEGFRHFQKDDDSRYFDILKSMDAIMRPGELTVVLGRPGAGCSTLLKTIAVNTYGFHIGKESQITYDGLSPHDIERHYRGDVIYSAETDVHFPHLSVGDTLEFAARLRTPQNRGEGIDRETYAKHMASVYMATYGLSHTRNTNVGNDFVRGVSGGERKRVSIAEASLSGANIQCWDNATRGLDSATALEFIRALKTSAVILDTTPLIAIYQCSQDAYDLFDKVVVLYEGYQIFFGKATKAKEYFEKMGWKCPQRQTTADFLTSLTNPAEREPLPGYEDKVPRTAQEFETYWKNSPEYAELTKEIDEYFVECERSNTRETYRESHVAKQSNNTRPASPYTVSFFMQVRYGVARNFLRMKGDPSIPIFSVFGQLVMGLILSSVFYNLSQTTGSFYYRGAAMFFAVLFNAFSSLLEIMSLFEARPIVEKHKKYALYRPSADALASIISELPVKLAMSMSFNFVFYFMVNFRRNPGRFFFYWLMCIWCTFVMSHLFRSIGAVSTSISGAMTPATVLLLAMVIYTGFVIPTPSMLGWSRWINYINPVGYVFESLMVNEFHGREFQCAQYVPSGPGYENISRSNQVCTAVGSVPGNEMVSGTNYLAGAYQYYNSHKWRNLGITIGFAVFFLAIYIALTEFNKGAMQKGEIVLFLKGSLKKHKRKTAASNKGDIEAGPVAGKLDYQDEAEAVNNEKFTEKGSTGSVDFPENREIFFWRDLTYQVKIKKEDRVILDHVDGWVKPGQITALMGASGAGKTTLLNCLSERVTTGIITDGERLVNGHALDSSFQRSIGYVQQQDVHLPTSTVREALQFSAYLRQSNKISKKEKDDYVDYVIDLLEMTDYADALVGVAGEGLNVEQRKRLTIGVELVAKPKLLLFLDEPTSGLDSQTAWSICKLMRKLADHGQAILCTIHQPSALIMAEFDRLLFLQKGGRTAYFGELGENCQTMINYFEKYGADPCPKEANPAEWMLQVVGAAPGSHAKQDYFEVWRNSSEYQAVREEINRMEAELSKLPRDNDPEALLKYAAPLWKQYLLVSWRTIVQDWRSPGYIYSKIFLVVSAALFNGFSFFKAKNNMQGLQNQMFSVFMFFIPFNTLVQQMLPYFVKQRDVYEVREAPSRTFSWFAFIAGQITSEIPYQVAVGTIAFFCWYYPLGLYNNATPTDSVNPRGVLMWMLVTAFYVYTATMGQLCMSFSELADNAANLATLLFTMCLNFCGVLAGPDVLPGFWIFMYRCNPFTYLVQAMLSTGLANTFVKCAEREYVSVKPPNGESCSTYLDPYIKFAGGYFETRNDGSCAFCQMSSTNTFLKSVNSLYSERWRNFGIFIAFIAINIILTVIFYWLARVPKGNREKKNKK
Benomyl/methotrexate resistance protein, sequence (P28873 whole entry): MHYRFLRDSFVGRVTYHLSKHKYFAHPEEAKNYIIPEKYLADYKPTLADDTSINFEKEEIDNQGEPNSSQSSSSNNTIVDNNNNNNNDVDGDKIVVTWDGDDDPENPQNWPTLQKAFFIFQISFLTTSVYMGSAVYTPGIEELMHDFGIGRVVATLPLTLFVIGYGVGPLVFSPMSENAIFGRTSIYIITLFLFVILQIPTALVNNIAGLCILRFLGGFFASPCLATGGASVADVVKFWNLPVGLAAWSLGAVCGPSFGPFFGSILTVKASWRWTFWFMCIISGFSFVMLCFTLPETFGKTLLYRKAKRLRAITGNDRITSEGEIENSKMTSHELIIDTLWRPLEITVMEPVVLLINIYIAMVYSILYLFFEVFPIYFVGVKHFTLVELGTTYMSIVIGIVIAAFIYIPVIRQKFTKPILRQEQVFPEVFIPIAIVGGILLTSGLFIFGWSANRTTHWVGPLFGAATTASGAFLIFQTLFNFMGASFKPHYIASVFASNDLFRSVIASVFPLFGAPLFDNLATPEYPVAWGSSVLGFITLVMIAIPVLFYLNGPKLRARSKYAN
Melanin-concentrating hormone receptor 1, sequence (Q99705 whole entry): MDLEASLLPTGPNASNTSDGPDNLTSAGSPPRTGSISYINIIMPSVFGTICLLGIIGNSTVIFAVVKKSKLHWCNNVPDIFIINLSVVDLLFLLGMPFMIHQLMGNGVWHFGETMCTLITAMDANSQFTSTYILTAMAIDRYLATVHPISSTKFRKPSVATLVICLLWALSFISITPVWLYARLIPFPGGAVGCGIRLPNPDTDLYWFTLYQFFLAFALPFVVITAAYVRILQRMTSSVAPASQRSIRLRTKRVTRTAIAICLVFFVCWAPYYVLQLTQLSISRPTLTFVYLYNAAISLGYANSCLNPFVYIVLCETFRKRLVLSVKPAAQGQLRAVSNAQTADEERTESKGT

COc1ccc2sc(-c3ccccc3OC)c(-c3ccc(OCCN(C)C)cc3)c2c1
active: EC50 [1] 10.5 µM | EC50 [2] 13.3 µM | EC50 [3] 10.2 µM | EC50 [4] 20.1 µM | EC50 [5] 5.43 µM

CCOCCCNS(=O)(=O)c1ccc(NC(=O)c2ccc([N+](=O)[O-])cc2Cl)cc1
active: IC50 [6] 1.45 µM | IC50 [7] 0.501 µM

N#CC(c1ccsc1)c1c(Br)cnn(Cc2cccc3ccccc23)c1=O (centres undefined)
active: IC50 [8] 0.417 µM | IC50 [9] 0.417 µM

— ChEMBL document CHEMBL1201862, “PubChem BioAssay data set” (2004)
